# Test results: US20240360076A1, “NONIONIC SURFACTANTS” (priority 2023, published 2024)
# Key:
# FluB target RNA sequence = experiment: FluB LAMP assay, time to positive; format: biochemical; conditions: for compatibility with FluB assay: presence of nasal matrix
# Experimental: As the surfactant concentration approaches its critical micelle concentration (CMC), detrimental impact is observed on LAMP performance.
# It was determined that DS2 is compatible with FluB assay in the presence of nasal matrix at 0.015%.
# [1] = tested on: SARS-COV-2 target template; experiment: SARS-COV-2 LAMP assay; format: biochemical; conditions: 0.0075% in LAMP MasterMix
# [2] = format: physicochemical; conditions: buffer, 1 month, 0.1 %, pH 8.8
# Experimental: Solutions of isothermal amplification buffers at pH 8.8 containing 0.1% of DS2, DS13, or DS17 were kept at 25° C. and analyzed over time using HPLC. It was observed that 95%-100% of the surfactant remained after one month (FIG. 5A) and therefore DSs are stable in pH 8.8 amplification buffer when stored in ambient conditions.
# [3] = CMC determination by dynamic light scattering; format: physicochemical
# Experimental: Average micelle radius data was collected on a DynaPro NanoStar Dynamic Light Scattering Detector. To each disposable cuvette was added 5 μL of the specified solution of DS1, DS2, or DS13 in water (T=25° C., n=10).
# Ex2B target template = experiment: Ex2B LAMP assay; conditions: 0.0075% in LAMP MasterMix
# Experimental: DS2 was added at 0%, 0.015%, 0.0575%, and 0.1% to the LAMP MasterMix, or LAMP buffer, containing target-specific primers, dNTPs, DNA polymerase, reverse transcriptase, intercalating fluorescent dye, and the target RNA sequence. This reaction mixture was incubated at 62° C. for 50 minutes and the increase in fluorescence was assessed to determine the time to positivity.
# DS2, DS13, and DS17 were added at 0.0075% to the LAMP MasterMix using the above procedure with Ex2B target template (FIG. 4B).
# MS2 template = experiment: Lyophilized MS2 LAMP chemistry, time to positive; format: biochemical; conditions: 0%, 0.03% or 0.06%; template 0.12 cp/μL and 0.06 cp/μL
# [4] = 2 months
Structure (SMILES),compatibility with FluB assay (FluB target RNA sequence; 0.0075% in LAMP MasterMix),compatibility with FluB assay (FluB target RNA sequence; 0.015% in LAMP buffer),"impact on LAMP performance at the CMC (FluB target RNA sequence; 0.1% DS2, FluB LAMP, nasal matrix, 62° C. for 50 minutes)",impact on assay specificity below the CMC (FluB target RNA sequence; concentrations below the CMC),compatibility with SARS-COV-2 assay [1],surfactant remaining [2],critical micelle concentration (CMC) [3],compatibility with Ex2B assay (Ex2B target template),"impact on time to positive (Tp, min) (MS2 template)",remaining [4]
CCCCCCCCCCC(=O)N(CCOCCOCCOC)CCOCCOCCOC [DS2],compatible,compatible,delay in the contrived positive amplification,no detrimental impact,compatible,95%-100,0.1%,compatible,–,–
CCCCCCCCCCC(=O)N(CCOCCOCCOCCOC)CCOCCOCCOCCOC [DS13],compatible,–,–,–,compatible,95%-100,–,compatible,no detrimental impact,97.1±1.5%
CCCCCCCCCCC(=O)NCCOCCOCCOCCOCCOCCOC [DS17],compatible,–,–,–,compatible,95%-100,–,compatible,–,–
